Values of other authors as cited in patent US20130266625A1 (YISSUM RESEARCH DEVELOPMENT COMPANY OF THE HEBREW …, priority 2011, published 2013).

Legend:
[1] = system: procollagen alpha1 (I), MMP-1 and TIMP-1 expression in skin; conditions: 5% in ethanol:olive oil (1:2), 12 times over 4 weeks
[2] = system: cultured dermal fibroblasts
[3] = 50 mg/day over one year

C[C@]12CC[C@H](O)CC1=CC[C@@H]1[C@@H]2CC[C@]2(C)C(=O)CC[C@@H]12 [DHEA, dehydroepiandrosterone]
basal expression of MMP-1 mRNA and protein [1]: significantly decreased | expression of procollagen alpha1 (I) mRNA and protein ([1]; aged and young skin): significantly increase | expression of TIMP-1 protein ([1]; aged skin): increased | matrix metalloproteinase (MMP)-1 synthesis [2]: decreasing | procollagen synthesis [2]: increase procollagen synthesis | tissue inhibitor of matrix metalloprotease (TIMP-1) production [2]: increasing | harmful consequences [3]: no harmful consequences were observed | skin status (hydration, epidermal thickness, sebum production, skin pigmentation) ([3]; individuals aged 60 years and over): improvement of the skin status
